These results are taken from ChEMBL document CHEMBL1201862, “PubChem BioAssay data set” (2004).

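Cells were grown in 96-well plates and exposed to each compound for 48 hours at five concentrations; endpoints were interpolated linearly between bracketing concentrations, or set to the highest concentration if not reached. The concentration for 50% growth inhibition is given as GI50.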 Activity calls are given as the source filed them. No stated cut-off is given here; in the data, active = GI50 up to about 1.1 µM and inactive = higher. Some results are limits rather than exact numbers.

What all share (experiment): growth of human tumour cells (NCI), 48 h
Test [1] concerns HOP-62.
Test [2] deals with HOP-92.
The subject of test [3] is IGROV-1.
In test [4] the test system is NCI-H226.
Test [5] concerns OVCAR-3.
For test [6], the system named is OVCAR-5.
For test [7], the system named is RPMI-8226.
In test [8] the test system is SF-295.
The subject of test [9] is SF-539.
Test [10] has as its system SK-MEL-2.
Test [11] relates to UACC-257.
The test system of test [12] is UACC-62.
The subject of test [13] is UO-31.
Test [14] deals with HL-60.
Test [15] has as its system M14.
Test [16] has as its system NCI-H460.

Turning to `COc1ccc(/C=N/N=C(\N)NO)c(OC)c1`, the GI50 in test [1] was 16.2 µM (inactive); in [2], 11.2 µM (inactive); in test [3] it was > 100 µM (inactive); in [4], 34.1 µM (inactive); in test [5] it was 37.7 µM (inactive); in test [6], 9.77 µM (inactive). Further, the GI50 in [7] is 84.3 µM (inactive); in test [8], 16.1 µM (inactive); in test [9], 23.3 µM (inactive); in test [10], 52.4 µM (inactive); in test [11], 80.7 µM (inactive); in test [12], 27.9 µM (inactive). Also, in test [13], the GI50 was 13.8 µM (inactive).
Turning to `COc1cc([C@@H]2c3cc4c(cc3[C@@H](NC(=O)c3cccc(F)c3)C3COC(=O)[C@@H]32)OCO4)cc(OC)c1O` (stereo not given in full), the GI50 in [14] was 0.111 µM (active); in [1], 0.195 µM (active); in test [2], 2.74 µM (inactive); in [3], 1.19 µM (inactive); in test [15], 1.26 µM (inactive); in test [4] it was 0.207 µM (active). Further, the GI50 is < 0.01 µM (active) in [16]; 3.6 µM (inactive) in [5]; 2.21 µM (inactive) in test [6]; 0.466 µM (active) in test [7]; 0.412 µM (active) in [8]; 0.356 µM (active) in [9]. Moreover, the GI50 is 4.46 µM (inactive) in [10], 7.19 µM (inactive) in test [11], 0.385 µM (active) in [12] and 2.99 µM (inactive) in [13].
Regarding `CC1=CP(=O)(c2ccccc2)C=C(C)C1=C(Cl)Cl` (stereo not given), the GI50 in [14] was 2.12 µM (inactive); in test [1], 3.26 µM (inactive); in test [3] it was 17.3 µM (inactive); in [15], 4.99 µM (inactive); in test [4], 3.19 µM (inactive); in [16] it was 3.35 µM (inactive). In addition, the GI50 in [5] was 16 µM (inactive); in [7] it was 2.5 µM (inactive); in test [8] it was 5.38 µM (inactive); in test [9] it was 5.24 µM (inactive); in test [12] it was 6.43 µM (inactive).
For the molecule `O=C1C2Nc3ccccc3SC2C(=O)N1c1ccc(Br)cc1` (stereo not given), the GI50 in [14] is > 10 µM (inactive); in test [1], 17.1 µM (inactive); in test [2] it was 10.9 µM (inactive); in test [3], 53.1 µM (inactive); in test [15] it was 33.5 µM (inactive); in [4], 7.24 µM (inactive). Besides, the GI50 in test [16] was 47 µM (inactive); in test [5], 23.7 µM (inactive); in test [6], > 100 µM (inactive); in [7] it was 13.1 µM (inactive); in test [8], 26.6 µM (inactive); in test [9], 26.4 µM (inactive). Besides, the GI50 is 17.7 µM (inactive) in [10], 26.5 µM (inactive) in [11], 20 µM (inactive) in test [12] and 18.4 µM (inactive) in test [13].
As for `CCN(CC)CC(C(=O)Nc1c(C)cccc1C)/C(C)=N\NC(=S)NN` (stereo not given), the GI50 in test [14], in test [1], in [2], in [3], in test [15] and in test [4] was > 100 µM (inactive) each time. For the same molecule, the GI50 in test [16], in test [5], in [6], in [7], in test [8] and in test [9] was > 100 µM (inactive) in each case. The GI50 in test [10], in [11], in [12] and in test [13] was > 100 µM (inactive) throughout.
Turning to `CCOC(=O)NC(=O)c1cn(C2CCCCC2)c(=O)[nH]c1=O`, the GI50 in test [14] was 7.53 µM (inactive); in [1], 38 µM (inactive); in test [2], > 100 µM (inactive); in test [3] it was 54.8 µM (inactive); in [15], 55.1 µM (inactive); in test [4] it was > 100 µM (inactive). For the same molecule, the GI50 in test [16] was 32.2 µM (inactive); in [5], > 100 µM (inactive); in test [6] it was > 100 µM (inactive); in test [7], 63.5 µM (inactive); in test [8] it was 94 µM (inactive); in [9] it was 39.7 µM (inactive). Further, the GI50 in [10] is > 100 µM (inactive); in [11], > 100 µM (inactive); in test [12], 40 µM (inactive); in [13], 56 µM (inactive).
With `N#CCc1nc2c(s1)C(=O)c1ccccc1C2=O`, the GI50 in [1] was 15 µM (inactive); in [2], 18.5 µM (inactive); in test [3], 3.76 µM (inactive); in test [15], 15.2 µM (inactive); in test [4] it was 19.8 µM (inactive); in [16], 21.7 µM (inactive). For the same molecule, the GI50 in test [5] is 15.8 µM (inactive); in test [6] it was 22.6 µM (inactive); in [7], 5.37 µM (inactive); in test [8], 19.4 µM (inactive); in test [9] it was 14.8 µM (inactive); in test [10], 17.3 µM (inactive). Also, the results for the GI50 in test [11], in test [12] and in test [13] were 15.2 µM (inactive), 13.1 µM (inactive) and 15.5 µM (inactive), respectively.
Turning to `CCOC(=O)NC(=O)c1cn(CCCOC(=O)NCCCCCCNC(=O)OCCCn2c(=O)c(C(=O)NC(=O)OCC)cn(C)c2=O)c(=O)n(C)c1=O`, the GI50 in [14], in [2], in [3], in test [15], in test [4] and in [16] was > 100 µM (inactive) throughout. The GI50 in test [5], in [6], in test [7], in test [10], in [11] and in [12] was > 100 µM (inactive) throughout. Besides, in test [13], the GI50 is > 100 µM (inactive).
For `c1c[nH]c(Cc2nc(Cc3c[nH]cn3)c[nH]2)n1`, the GI50 was 3.66 µM (inactive) in test [14]; 17.5 µM (inactive) in test [1]; 22 µM (inactive) in test [2]; 16.5 µM (inactive) in [3]; 10.5 µM (inactive) in test [15]; 11.2 µM (inactive) in [4]. Also, the GI50 in test [16] is 24 µM (inactive); in [5] it was 55.8 µM (inactive); in [6], 1.53 µM (inactive); in test [7] it was 10.1 µM (inactive); in test [8], 35.6 µM (inactive); in [9], 27.2 µM (inactive). For the same molecule, the GI50 is 13.7 µM (inactive) in test [10] and 19.8 µM (inactive) in test [12].
Consider `Clc1cc2nc[nH]c2cc1Cl`, for which the GI50 was > 100 µM (inactive) in test [14]; 93.8 µM (inactive) in test [1]; 56 µM (inactive) in test [2]; > 100 µM (inactive) in [3]; > 100 µM (inactive) in [15]; 36.7 µM (inactive) in test [4]. The GI50 in test [16], in test [5], in test [6], in test [7], in test [8] and in test [9] was > 100 µM (inactive) throughout. In addition, the GI50 in test [10] is > 100 µM (inactive); in test [12], 76 µM (inactive); in test [13], 48.2 µM (inactive).
